In ChEMBL document CHEMBL1132430, “Protein kinase C ligands based on tetrahydrofuran templates containing a new set of phorbol ester pharmacophores” (J Med Chem, 1999):

Molecular target: Protein kinase C alpha type (Homo sapiens, UniProt P17252)
Assay: Displacement of [3H-20]-phorbol 12,13-dibutyrate(PDBU) from recombinant Protein kinase C alpha

Compound | Ki
CCCCCCCCCCCCCC(=O)OC[C@]1(CO)CC[C@H](CC(=O)OC)O1 | 2.72 µM
CCCCCCCCCCCCCC(=O)OCC1(CO)C/C(=C\C(=O)OC)CO1 (stereo not drawn) | 0.35 µM
CCCCCCCC/C=C\CCCCCCCCOC(=O)/C=C1\COC(CO)(COC(C)=O)C1 (stereo not drawn) | 0.85 µM

Continued, values first:

Ki | Compound
1.86 µM | CCCCCCCC/C=C\CCCCCCCCOC(=O)/C=C1/COC(CO)(COC(C)=O)C1 (stereo not drawn)
0.35 µM | CCCCCCCCCCCCCC(=O)OCC1(CO)C/C(=C/C(=O)OC)CO1 (stereo not drawn)
12.8 µM | CCCCCCCCCCCCCCOC(=O)C[C@@H]1CC[C@@](CO)(COC(=O)CCCCC)O1
2.38 µM | CCCCCCCCCCCCCCOC(=O)C[C@H]1CC[C@@](CO)(COC(=O)CCCCC)O1
10.8 µM | CCCCCCCCCCCCCC(=O)OC[C@]1(CO)CC[C@@H](CC(=O)OC)O1
